Results published in patent US7091033B2, “Array of toxicologically relevant canine genes and uses thereof” (Phase-1 Molecular Toxicology, Inc., priority 2000, dated 2006).

How the values were obtained:
Test in all cases: Canine array gene expression profile of kidney from dog dosed with erythromycin estolate
Format in all cases: in vivo
Settings in all cases: dog, kidney, 100 mg/kg
[1] = system: Glutathione S-transferase alpha subunit
Experimental: (§1) For liver or kidney, about 0.15-0.20 g of tissue was weighed and placed in a 15 ml conical tube. All tissue were kept on dry ice when other samples were being weighed.
(§2) About 3.8 ml of RLT buffer was added to the tube containing the sample. The RLT buffer® from Qiagen can be prepared beforehand by adding 10 μl betamercaptoethanol to each 1.0 ml of lysis buffer needed. The tissue was homogenized using the rotor-stator homogenizer for 45 seconds. A IKA Ultra Turrax T25 homogenizer set at speed 4 with the S25N-10G dispersing element can be used. Alternatively, a Virtishear Cyclone 750W rotor/stator homogenizer (Virtis item #278077) can be used with the 7 mm microfine sawtooth shaft and generator (195 mm long with a processing range of 0.25 ml to 20 ml, item #372718). After homogenization, samples were stored on ice until all samples were homogenized. To clean the homogenizing tip between samples, the tip was first run for a few seconds in 95% ethanol and then rinsed by squirting with fresh 95% ethanol. This process was repeated with nanopure water.
(§3) The tissue lysate was centrifuged at room temperature for 10 minutes at 3700-3800 rpm in a Beckman GS-6 (or equivalent) centrifuge to remove nuclei thus reducing DNA contamination.
(§4) The supernatant of the lysate was transferred to a clean 15 ml conical tubes containing an equal volume of 70% EtOH in DEPC treated H2O, being careful not to include any of the pellet or fatty layer and mixed. About 3.8 ml of sample was added to the RNeasy spin column placed in a 15 ml centrifuge tube and centrifuged at 3000×g (3690-3710 rpm, Beckman GS-6) for 5 min. The flow-through was discarded. The remaining sample was added to the appropriate column and spun at 3000×g for 5 minutes and the flow-through was discarded.
(§5) About 4.0 ml of Buffer RW1 (Qiagen®) was added to the column and spun as before then about 2.5 ml of buffer RPE (Qiagen®) was added to column and spun at 3000×g (3690-3710 rpm, Beckman GS-6) for 2 minutes. In this example, RPE buffer was supplied as a concentrate so 4 volumes of 95% EtOH was added before use. For the midi kit, about 220 ml of 95% EtOH would be added to 55 ml of RPE. Another 2.5 ml of buffer RPE was added and spun for 5 minutes to also dry out column. The column, including the tip, should be dry for the next elution step.
(§6) For elution, the column that has the RNA bound to a clean 15 ml tube was transferred and 200 μl of RNase-free water was added to the column, allowed to sit for 1 minute, and spun for 3 minutes at 3000×g (3690-3710 rpm, Beckman GS6). This step was repeated into the same tube but with 200 μl RNase-free water.
(§7) Liver and kidney organs were isolated from a dog which was dosed with erythromycin esolate at 100 mg/kg/day for 2 or 10 days. The dog was euthanized 16 hours after the last dosage and the organs were harvested according to standard sterile procedure. RNA was isolated from the kidney and liver as detailed in Example 1. cDNA was made from the RNA and used as probes as detailed in the Examples above.

[2] = system: Cytochrome P450 3A
Experimental: as §1, §2, §3, §4, §5, §6, §7

[3] = system: Cytochrome P450 2D (gene expression)
Experimental: as §1, §2, §3, §4, §5, §6, §7

fold induction at 10 days [1]: 1.1
fold induction at 10 days [2]: 1.3
fold induction at 10 days [3]: 1.1
SMILES: CCC(=O)O[C@H]1[C@H](O[C@@H]2[C@@H](C)[C@H](O[C@H]3C[C@@](C)(OC)[C@@H](O)[C@H](C)O3)[C@@H](C)C(=O)O[C@H](CC)[C@@](C)(O)[C@H](O)[C@@H](C)C(=O)[C@H](C)C[C@@]2(C)O)O[C@H](C)C[C@@H]1N(C)C [erythromycin estolate]
